Assay results reported in publication PMC9067983, “Identification of highly selective type II kinase inhibitors with chiral peptidomimetic tails” (Journal of Enzyme Inhibition and Medicinal Chemistry, 2022).
Where a SMILES comes first, the peptide text is derived from it. [ ]: non-standard residue; d: D form. The star is where a group is joined. X1 = Cc1ccc(Nc2ncc3c(n2)N(C)C(=O)N(c2cc(C(=O)*)ccc2C)C3)cn1; Aib = CC(C)(N)C(=O)O

Legend:
Lck (Y394) = assay: Western blot of p-Lck (Y394) in anti-CD3-treated Jurkat cells; format: cell-based; conditions: anti-CD3-treated Jurkat T cells, 10, 50, or 100 μM, 30 min
Protocol: Figure 6. Effect of 7a on the Lck (Y394) activation in anti-CD3-treated Jurkat cells. After treatment with CD3 antibody for coating in plates, cells were seeded and then treated with various concentrations of 7a (10, 50, or 100 μM) or A770041 (1 μM) used as a positive control. The phosphorylation of Lck tyrosine in Jurkat cells was activated by anti-CD3 mAb. Total cellular protein was resolved by SDS-PAGE, transferred to PVDF membranes, and detected with specific p-Lck (Y394) antibody. β-Actin was used as an internal control.
Jurkat cells were purchased from the Korea Cell Line Bank (Seoul, Republic of Korea) and maintained in RPMI-1640 medium containing 10% FBS, streptomycin sulphate, penicillin, HEPES, and sodium bicarbonate in a 5% CO2 atmosphere at 37 °C. Jurkat cells were stimulated with 1 μg/ml of plate-bound anti-CD3 mAb (clone HIT3a, BD Bioscience) and then incubated with KITS 1–001 (10, 50, or 100 μM) for 30 min.
The protein of Jurkat cells was extracted using a PRO-PREP (Intron Biotechnology, Seoul, Republic of Korea). The protein concentration was determined using Bio-Rad protein assay reagent according to the manufacturer’s instruction and BSA (Bio-Rad, Hercules, CA, USA) was used as a standard for quantification. […] The membranes were analysed using an enhanced chemiluminescence (ECL) substrate and imaged by LAS-4000 luminescent image analyser (FUJIFILM, Tokyo, Japan).

Yes = target: T1, Yes (Homo sapiens, UniProt P07947); assay: In vitro kinase assay (IC50); format: biochemical
T1 construct: purchased Reaction Biology Corp
Protocol: (§1) Full panel kinase profiling and kinase IC50 measurement were performed by using Reaction Biology Corp. (San Diego, USA).

Fgr = target: T2, Fgr (Homo sapiens, UniProt P09769); assay: In vitro kinase assay (IC50); format: biochemical
T2 construct: purchased Reaction Biology Corp
Protocol: as §1

p38a = target: T3, p38a (Homo sapiens, UniProt Q16539); assay: In vitro kinase assay (IC50); format: biochemical
T3 construct: purchased Reaction Biology Corp
T3 sequence (Q16539 whole entry): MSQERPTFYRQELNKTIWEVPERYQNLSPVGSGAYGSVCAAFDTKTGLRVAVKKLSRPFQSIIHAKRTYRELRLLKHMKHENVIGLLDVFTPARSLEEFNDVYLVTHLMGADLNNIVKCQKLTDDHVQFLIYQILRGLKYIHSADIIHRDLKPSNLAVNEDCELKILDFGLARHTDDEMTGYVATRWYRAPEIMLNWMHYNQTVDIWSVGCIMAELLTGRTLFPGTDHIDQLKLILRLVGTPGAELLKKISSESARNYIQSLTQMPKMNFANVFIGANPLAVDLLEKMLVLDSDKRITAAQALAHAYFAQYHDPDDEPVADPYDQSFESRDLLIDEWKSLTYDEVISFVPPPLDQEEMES
Protocol: as §1

c-Src = target: T4, c-Src (Homo sapiens, UniProt P12931); assay: In vitro kinase assay (IC50); format: biochemical
T4 construct: purchased Reaction Biology Corp
Protocol: as §1

Lyn = target: T5, Lyn (Homo sapiens, UniProt P07948); assay: In vitro kinase assay (IC50); format: biochemical
T5 construct: purchased Reaction Biology Corp
Protocol: as §1

DDR1 = target: T6, DDR1 (Homo sapiens, UniProt Q08345); assay: In vitro kinase assay (IC50); format: biochemical
T6 construct: purchased Reaction Biology Corp
Protocol: as §1

Lck [1] = target: T7, Lck (Homo sapiens, UniProt P06239); assay: In vitro kinase assay (IC50); format: biochemical
T7 construct: purchased Reaction Biology Corp
T7 sequence (P06239 whole entry): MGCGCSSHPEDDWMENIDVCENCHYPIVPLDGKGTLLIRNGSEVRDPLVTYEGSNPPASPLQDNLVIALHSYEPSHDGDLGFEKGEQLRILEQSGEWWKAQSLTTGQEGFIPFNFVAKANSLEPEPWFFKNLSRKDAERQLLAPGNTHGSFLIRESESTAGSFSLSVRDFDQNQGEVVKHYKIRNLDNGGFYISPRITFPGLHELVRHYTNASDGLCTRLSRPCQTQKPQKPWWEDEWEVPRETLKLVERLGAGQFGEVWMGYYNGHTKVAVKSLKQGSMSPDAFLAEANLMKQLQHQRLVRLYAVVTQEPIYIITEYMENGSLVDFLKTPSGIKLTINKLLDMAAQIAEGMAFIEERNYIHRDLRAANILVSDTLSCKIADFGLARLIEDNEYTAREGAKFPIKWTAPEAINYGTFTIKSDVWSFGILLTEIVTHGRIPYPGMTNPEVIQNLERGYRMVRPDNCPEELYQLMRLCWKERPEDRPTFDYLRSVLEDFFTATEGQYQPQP
Protocol: as §1

Blk = target: T8, Blk (Homo sapiens, UniProt P51451); assay: In vitro kinase assay (IC50); format: biochemical
T8 construct: purchased Reaction Biology Corp
T8 sequence (P51451 whole entry): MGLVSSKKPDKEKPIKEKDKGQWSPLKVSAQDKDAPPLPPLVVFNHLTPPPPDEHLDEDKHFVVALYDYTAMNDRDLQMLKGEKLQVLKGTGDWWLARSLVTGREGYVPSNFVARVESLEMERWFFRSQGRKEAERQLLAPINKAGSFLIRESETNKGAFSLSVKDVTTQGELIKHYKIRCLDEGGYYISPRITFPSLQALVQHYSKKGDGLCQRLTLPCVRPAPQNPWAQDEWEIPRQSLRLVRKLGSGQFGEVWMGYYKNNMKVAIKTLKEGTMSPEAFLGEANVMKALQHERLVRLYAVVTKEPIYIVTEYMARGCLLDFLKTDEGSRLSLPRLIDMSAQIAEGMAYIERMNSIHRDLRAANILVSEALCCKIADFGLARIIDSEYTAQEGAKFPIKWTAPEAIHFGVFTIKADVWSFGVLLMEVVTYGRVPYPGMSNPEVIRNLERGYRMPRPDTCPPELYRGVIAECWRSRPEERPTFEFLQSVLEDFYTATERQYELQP
Protocol: as §1

Abl1 = target: T9, Abl1 (Homo sapiens, UniProt P00519); assay: In vitro kinase assay (IC50); format: biochemical
T9 construct: purchased Reaction Biology Corp
Protocol: as §1

BMX/ETK = target: T10, BMX/ETK (Homo sapiens, UniProt P51813); assay: In vitro kinase assay (IC50); format: biochemical
T10 construct: purchased Reaction Biology Corp
Protocol: as §1

Lck [2] = target: T7, Lck; assay: Biochemical IC50 on Lck at Km and 1 mM ATP
Protocol: as §1

DSS-induced colitis mice = assay: DSS-induced colitis model; format: in vivo; conditions: 5 mg/kg, i.p., daily for 7 days, 4% DSS, day 7
Protocol: Male C57BL/6 mice (21 ± 2 g; 6 weeks) were obtained from Oriental Bio Inc. (Seongnam-si, Korea). All mice were bred under constant conditions (temperature: 22 ± 2 °C, humidity: 40–60%, light/dark cycle: 12 h). All animal experiments were conducted under the university guidelines of the ethical committee for Animal Care and Use of the Kyung Hee University (KHSASP-22–002).
Colitis in mice was induced by providing water containing 4% (w/v) DSS for 7 days. Mice were randomly divided into 5 groups (n = 6/group, Figure 8) as follows: control group treated with vehicle; DSS plus vehicle group exposed to 4% DSS and treated with vehicle; the other 3 groups consist of mice receiving 4% DSS was treated with 5-ASA (75 mg/kg/day, p.o.) as a positive control or 7a (1, 5 mg/kg/day, i.p.) daily for 7 days.
To calculate the severity of colitis, body weight, stool consistency, and occult/gross bleeding of all mice were assessed. DAI score was measured every day according to the following table (Table 5). The colon length was measured at end of the experiment.

EGFR = target: T11, EGFR (Homo sapiens, UniProt P00533); assay: kinase selectivity profiling; format: biochemical; conditions: 10µM ATP, read-out: % inhibition (relative to DMSO)
T11 construct: purchased Reaction Biology Corp
Protocol: as §1

CAMK2b = target: T12, CAMK2b (Homo sapiens, UniProt Q13554); assay: kinase selectivity profiling; format: biochemical; conditions: 10µM ATP, read-out: % inhibition (relative to DMSO)
T12 construct: purchased Reaction Biology Corp
T12 sequence (Q13554 whole entry): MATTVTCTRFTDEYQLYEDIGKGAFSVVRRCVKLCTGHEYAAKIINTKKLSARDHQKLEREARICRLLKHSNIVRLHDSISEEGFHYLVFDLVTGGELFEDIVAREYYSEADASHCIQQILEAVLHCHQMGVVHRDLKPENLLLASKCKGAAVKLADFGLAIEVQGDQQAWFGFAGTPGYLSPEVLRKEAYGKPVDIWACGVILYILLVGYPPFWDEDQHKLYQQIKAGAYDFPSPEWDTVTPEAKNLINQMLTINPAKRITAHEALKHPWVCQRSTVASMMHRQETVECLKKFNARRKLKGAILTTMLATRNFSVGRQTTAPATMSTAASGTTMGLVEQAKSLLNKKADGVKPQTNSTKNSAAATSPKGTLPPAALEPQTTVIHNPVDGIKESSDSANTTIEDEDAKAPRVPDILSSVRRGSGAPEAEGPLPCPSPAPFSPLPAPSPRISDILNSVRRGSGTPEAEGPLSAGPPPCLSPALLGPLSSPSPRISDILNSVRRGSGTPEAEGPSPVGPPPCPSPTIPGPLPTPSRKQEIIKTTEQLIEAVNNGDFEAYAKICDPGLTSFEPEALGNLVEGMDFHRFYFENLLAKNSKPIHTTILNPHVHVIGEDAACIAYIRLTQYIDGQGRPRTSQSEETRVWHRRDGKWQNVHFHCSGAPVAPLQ
Protocol: as §1

MSK2/RPS6KA4 = target: T13, MSK2/RPS6KA4 (Homo sapiens, UniProt O75676); assay: kinase selectivity profiling; format: biochemical; conditions: 10µM ATP, read-out: % inhibition (relative to DMSO)
T13 construct: purchased Reaction Biology Corp
T13 sequence (O75676 whole entry): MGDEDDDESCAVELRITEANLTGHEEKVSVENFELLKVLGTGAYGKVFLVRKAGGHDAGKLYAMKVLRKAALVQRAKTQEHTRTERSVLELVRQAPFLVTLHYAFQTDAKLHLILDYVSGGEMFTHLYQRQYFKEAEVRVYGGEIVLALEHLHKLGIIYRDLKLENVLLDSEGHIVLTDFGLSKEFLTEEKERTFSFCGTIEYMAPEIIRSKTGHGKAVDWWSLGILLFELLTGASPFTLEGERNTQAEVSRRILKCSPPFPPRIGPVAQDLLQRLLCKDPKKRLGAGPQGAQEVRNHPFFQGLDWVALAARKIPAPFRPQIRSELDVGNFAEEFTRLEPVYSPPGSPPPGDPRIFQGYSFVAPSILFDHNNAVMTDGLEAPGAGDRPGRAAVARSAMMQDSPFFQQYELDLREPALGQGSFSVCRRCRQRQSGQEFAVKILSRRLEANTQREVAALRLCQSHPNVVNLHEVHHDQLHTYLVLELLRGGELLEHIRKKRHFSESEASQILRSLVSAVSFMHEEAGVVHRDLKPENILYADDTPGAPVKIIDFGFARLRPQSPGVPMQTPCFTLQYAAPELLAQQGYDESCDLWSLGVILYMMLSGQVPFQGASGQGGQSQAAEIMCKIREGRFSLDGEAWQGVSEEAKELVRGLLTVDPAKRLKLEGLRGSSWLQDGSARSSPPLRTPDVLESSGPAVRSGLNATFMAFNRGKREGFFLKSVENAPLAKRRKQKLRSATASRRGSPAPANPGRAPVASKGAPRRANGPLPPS
Protocol: as §1

FER = target: T14, FER (Homo sapiens, UniProt P16591); assay: kinase selectivity profiling; format: biochemical; conditions: 10µM ATP, read-out: % inhibition (relative to DMSO)
T14 construct: purchased Reaction Biology Corp
Protocol: as §1

SSTK/TSSK6 = target: T15, SSTK/TSSK6 (Homo sapiens, UniProt Q9BXA6); assay: kinase selectivity profiling; format: biochemical; conditions: 10µM ATP, read-out: % inhibition (relative to DMSO)
T15 construct: purchased Reaction Biology Corp
Protocol: as §1

DRAK1/STK17A = target: T16, DRAK1/STK17A (Homo sapiens, UniProt Q9UEE5); assay: kinase selectivity profiling; format: biochemical; conditions: 10µM ATP, read-out: % inhibition (relative to DMSO)
T16 construct: purchased Reaction Biology Corp
T16 sequence (Q9UEE5 whole entry): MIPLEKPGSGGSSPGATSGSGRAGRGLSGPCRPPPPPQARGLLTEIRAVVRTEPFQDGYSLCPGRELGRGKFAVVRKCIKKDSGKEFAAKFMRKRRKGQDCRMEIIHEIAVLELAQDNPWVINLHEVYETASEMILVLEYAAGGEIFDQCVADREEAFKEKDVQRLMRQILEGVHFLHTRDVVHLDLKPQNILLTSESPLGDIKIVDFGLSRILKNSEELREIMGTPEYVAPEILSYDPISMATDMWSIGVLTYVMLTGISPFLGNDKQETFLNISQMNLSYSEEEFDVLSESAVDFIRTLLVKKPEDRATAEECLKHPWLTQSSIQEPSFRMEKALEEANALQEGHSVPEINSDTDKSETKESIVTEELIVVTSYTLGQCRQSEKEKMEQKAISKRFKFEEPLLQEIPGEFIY
Protocol: as §1

PDGFRa = target: T17, PDGFRa (Homo sapiens, UniProt P16234); assay: kinase selectivity profiling; format: biochemical; conditions: 10µM ATP, read-out: % inhibition (relative to DMSO)
T17 construct: purchased Reaction Biology Corp
T17 sequence (P16234 24-1089): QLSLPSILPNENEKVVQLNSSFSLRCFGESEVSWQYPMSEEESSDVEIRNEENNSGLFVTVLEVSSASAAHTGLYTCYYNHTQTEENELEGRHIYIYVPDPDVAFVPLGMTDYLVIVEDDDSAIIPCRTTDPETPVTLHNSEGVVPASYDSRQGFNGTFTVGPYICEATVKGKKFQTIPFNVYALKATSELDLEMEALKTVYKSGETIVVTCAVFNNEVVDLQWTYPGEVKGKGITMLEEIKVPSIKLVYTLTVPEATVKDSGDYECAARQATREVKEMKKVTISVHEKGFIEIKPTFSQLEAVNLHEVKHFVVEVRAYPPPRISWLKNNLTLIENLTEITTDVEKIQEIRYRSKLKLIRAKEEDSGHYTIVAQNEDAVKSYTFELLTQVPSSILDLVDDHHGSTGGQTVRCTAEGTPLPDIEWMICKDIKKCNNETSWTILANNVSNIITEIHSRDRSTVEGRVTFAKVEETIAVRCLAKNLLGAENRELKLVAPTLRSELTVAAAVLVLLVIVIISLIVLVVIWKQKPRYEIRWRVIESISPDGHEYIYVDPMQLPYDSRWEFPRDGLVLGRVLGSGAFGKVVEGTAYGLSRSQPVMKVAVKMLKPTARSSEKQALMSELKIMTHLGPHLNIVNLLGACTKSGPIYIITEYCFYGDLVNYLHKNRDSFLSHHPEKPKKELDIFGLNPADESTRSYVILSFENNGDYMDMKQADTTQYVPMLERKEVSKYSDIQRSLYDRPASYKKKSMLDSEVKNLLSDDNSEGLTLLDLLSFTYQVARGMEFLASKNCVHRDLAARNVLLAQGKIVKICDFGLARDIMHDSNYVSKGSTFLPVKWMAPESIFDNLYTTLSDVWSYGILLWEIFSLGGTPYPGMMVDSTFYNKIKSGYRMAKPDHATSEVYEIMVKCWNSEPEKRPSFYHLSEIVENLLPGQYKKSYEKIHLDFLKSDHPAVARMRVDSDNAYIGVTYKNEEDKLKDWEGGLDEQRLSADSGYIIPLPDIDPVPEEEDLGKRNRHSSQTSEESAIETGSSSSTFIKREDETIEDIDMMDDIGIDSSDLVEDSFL
Protocol: as §1

CDK14/cyclin Y (PFTK1) = target: T18, CDK14/cyclin Y (PFTK1) (Homo sapiens, UniProt O94921); assay: kinase selectivity profiling; format: biochemical; conditions: 10µM ATP, read-out: % inhibition (relative to DMSO)
T18 construct: purchased Reaction Biology Corp
Protocol: as §1

PKCG = target: T19, PKCG (Homo sapiens, UniProt P05129); assay: kinase selectivity profiling; format: biochemical; conditions: 10µM ATP, read-out: % inhibition (relative to DMSO)
T19 construct: purchased Reaction Biology Corp
Protocol: as §1

PKN3/PRK3 = target: T20, PKN3/PRK3 (Homo sapiens, UniProt Q6P5Z2); assay: kinase selectivity profiling; format: biochemical; conditions: 10µM ATP, read-out: % inhibition (relative to DMSO)
T20 construct: purchased Reaction Biology Corp
Protocol: as §1

Cc1ccc(Nc2ncc3c(n2)N(C)C(=O)N(c2cc(C(=O)N[C@H](C(=O)N4CCC[C@H]4C(=O)NC(C)(C)C(=O)N[C@@H](CC(C)C)C(=O)N(C)C)C(C)C)ccc2C)C3)cn1 [7a, (S)-N-(1-(((S)-1-(dimethylamino)-4-methyl-1-oxopentan-2-yl)amino)-2-methyl-1-oxopropan-2-yl)-1-((4-methyl-3-(1-methyl-7-((6-methylpyridin-3-yl)amino)-2-oxo-1,4-dihydropyrimido[4,5-d]pyrimidin-3(2H)-yl)benzoyl)-L-valyl)pyrrolidine-2-carboxamide] (X1-VP[Aib]L-NMe2)
phosphorylated Lck levels at tyrosine 394 (Lck (Y394)): markedly reduced the phosphorylated Lck levels at tyrosine 394 residue in a concentration-dependent manner | IC50 (Yes): 495 nM | IC50 (Fgr): 201 nM | IC50 (p38a): > 10000 nM | IC50 (c-Src): 861 nM | IC50 (Lyn): 671 nM | IC50 (DDR1): 110 nM | IC50 (Lck [1]): 23 nM | selectivity for Lck over c-Src (Lck [1]): over 10 fold | Lck selectivity over c-Src (c-Src IC50 / Lck IC50) (Lck [1]; Table 2): 37 | IC50 (Blk): 253 nM | IC50 (Abl1): 378 nM | IC50 (BMX/ETK): 293 nM | IC50 (Lck [2]; ATP conc. 14 µM (Km)): 190 nM | IC50 (Lck [2]; ATP conc. 1 mM): 21000 nM | mode of inhibition (Lck [2]; IC50 at Km vs 1 mM ATP): ATP competitive kinase inhibitors | disease activity index (DAI) symptom changes (DSS-induced colitis mice): improved the symptom changes at the end of experiments | colon length (DSS-induced colitis mice; mean ± SE, n = 6): 5.47 ± 0.60 cm | inhibition at 1 µM (EGFR): 0% | inhibition at 1 µM (CAMK2b): 3% | inhibition at 1 µM (MSK2/RPS6KA4): 9% | inhibition at 1 µM (FER): 0% | inhibition at 1 µM (SSTK/TSSK6): 0% | inhibition at 1 µM (DRAK1/STK17A): 0% | inhibition at 1 µM (PDGFRa): 31% | inhibition at 1 µM (CDK14/cyclin Y (PFTK1)): 6% | inhibition at 1 µM (PKCG): 9% | inhibition at 1 µM (PKN3/PRK3): 8%
